Values of other authors in patent publication US8529939B2, “Mucoadhesive drug delivery devices and methods of making and using thereof” (Gel-Del Technologies, Inc., priority 2003, dated 2013).

[1] = contact time 30 s, previous study

OC[C@@H](O)[C@@H](O)[C@H](O)[C@H](O)CO [Mannitol, mannitol]
tensile stress [1]: 0.017 N/cm^2 | tensile work [1]: 0.015 mJ/cm^2 | bioadhesive properties (in words) (powders, control reference): no bioadhesive properties
